Tests used:
Assay type in all cases: physicochemical
[1] = Critical micelle formation concentration (CMC) by surface tension
Description: MEASUREMENT OF THE CRITICAL MICELLE FORMATION CONCENTRATION (CMC): CMC measurements are conducted by a measurement of a surface tension measure as a function of surfactant concentration according to “Surfactant: A Practical Handbook,” K. Robert Lange ed., Hanser Publishers, Munich (1999), pp. 16-17. A 5000-ppm stock solution of the samples is prepared for the analysis on a Kruss K100 Tensiometer (Kruss USA, Charlotte, N.C.). The hardness level and pH are adjusted using corresponding stock solutions of artificial hardness and an NaOH solution. The concentration series is generated automatically with a computer-controlled Dosimat, so that only a surfactant stock solution needs to be prepared. Measurements of surface tension at the air-water interface are carried out at twelve surfactant concentrations. The samples are analyzed at pH 8 and pH 10 for hardness values of 4 gpg and 8 gpg, all measurements being taken at 25.0° C. (±0.5° C.). The CMC data are analyzed by plotting increase in surface tension with respect to dilution by using the “CMC Add-In” of the Lab Desk software from Kruss. The CMC is defined as the surfactant concentration at the breakpoint in the titration curve.

[2] = Micellar lifetime (τ2) by stopped flow conductimetry; settings: pH 10.0 (wash), lauric acid system
Description: MEASUREMENT OF […] […] (τ2): The micellar stability of a surfactant system is measured by Stopped Flow Conductimetry. The experiment is run at 25.0° C. (±0.5° C.). […] The conductivity of the solution is monitored by a MCS-200 Impedance Spectrometer from Bio-Logic SAS. The τ2 value is defined as the time required to reach a new equilibrium, as determined by curve-fit software BKMCS (version #1) from the Bio-Logic SAS company.

[3] = Marangoni effect (E′/E″), oscillating drop interfacial rheology; settings: pH 10.0 (wash), lauric acid system
Description: […] EFFECT (EYE'') MEASUREMENT: The Marangoni Effect quantifies the origin of foam film stability. Dynamic interfacial rheology is measured by a DSA100 (Kruss USA, Charlotte, N.C.) instrument equipped with an Oscillating Drop Module (ODM). The measurement is based on monitoring oscillating pendent drop shape with a CCD camera. The dynamic changes in the surface area and the interfacial tension (air-liquid interface) of the pendent drop from oscilating at equal periods, were recorded. A delay of dynamic interfacial tension change to dynamic surface area change is expressed as a phase angle Φ […]. From the measured phase angle, the Elastic Modulus (E') and Viscous Modulus (E'') are calculated. The Marangoni Effect EYE'' is computed from the relationship, E'/E''=cot Φ. At various surfactant levels, measurements are conducted at pH 10 and 4 gpg hardness in a base matrix of 300 ppm LAS (detergent measurements only) or 2000 ppm fatty acid (bar soap measurements only); 2300 ppm Na2SO4, and 25 ppm TBS (described above). The pH-switchable cosurfactants are added on the top of the base matrix to assess their impact on foam-film stability. The ODM operation is conducted with a period time of 2 seconds and an oscillation amplitude of 0.1 or 0.5.

[4] = Suds testing protocol (FOAMSCAN foam / suds / lather volume); settings: for Foam Volume: lauric acid 2000 ppm
Description: SUDS TESTING PROTOCOL: Foam volume and foam mileage are measured by […] instrument manufactured by […].-Concept, Longessaigne, France. The experiment is run at 25.0° C. (±0.5° C.). […] The cleaning solution contains 25 ppm Technical Body Soil (“TBS”; consisting of 15 wt. % coconut oil, 15 wt. % oleic acid, 15 wt. % paraffin oil, 15 wt. % olive oil, 15 wt. % cottonseed oil, 5 wt. % squalene, 5 wt. % cholesterol, 5 wt % myristic acid, 5 wt. % palmitic acid, and 5 wt. % stearic acid). The cleaning solution is mixed and aged at 60° C. for an hour and is placed into the […] sample chamber, a 1000-mL cylindrical transparent plastic cell. […] The suds volume recorded at the end of stifling is defined as the suds volume generated. The suds mileage is monitored by the time course of the suds height over 10 minutes. The final suds volume at the end of the 10 minutes is reported. […] Hardness is indicated by a calculation where both calcium and magnesium values are reported as mg/L (ppm), in which 2.5[Ca]+4.12[Mg] equals hardness in mg/L. The unit “grains per gallon” (gpg) is defined as 1 grain (64.8 mg) of calcium carbonate per U.S. gallon (3.79 L), or 17.118 ppm. Thus, 1 gpg is equivalent to 17.118 ppm of the Calcium and Magnesium solution at a 3:1 molar ratio of calcium to magnesium.

**Q.** Which CMC ([1]; pH 8) does the source give for `CCCCCCCCCCCC[N+](C)(C)CCO.[Br-]` [KDB, dodecyl-(2-hydroxyethyl)-dimethyl ammonium bromide] here?
**A.** The CMC was 48 ppm.

**Q.** And the CMC ([1]; pH 10)?
**A.** The CMC was 43 ppm.

**Q.** Which τ2 [2] does the source give for `CCCCCCCCCCCC(=O)O` [Lauric Acid] here?
**A.** The τ2 was 39 ms.

**Q.** And the “E′/E″” value [3]?
**A.** The value was 1.5.

**Q.** What about the “Foam Volume” value ([4]; pH 8.0 (rinse)) of the same compound?
**A.** Its value is 222 mL.

**Q.** What about the “Foam Volume” value ([4]; pH 10.0 (wash)) of the same compound?
**A.** The value was 80 mL.

**Q.** With `CCCCCCCCCCCCNCCC[N+](C)(C)C.[Br-]` [QUAT, 3-(dodecylamino)-N,N,N-trimethylpropan-1-aminium bromide] as the compound, how does the CMC ([1]; pH 8) read?
**A.** Its CMC is 82 ppm.

**Q.** And the CMC ([1]; pH 10)?
**A.** Its CMC is 75 ppm.

**Q.** For `CCCCCCCCCCCC(=O)[O-].[Na+]` [Sodium Laurate], which “Change of Lather Volume (rinse vs wash)” value ([4]; 4 gpg) is on record?
**A.** The value was −72%.

**Q.** And the “Change of Lather Volume (rinse vs wash)” value ([4]; 8 gpg)?
**A.** The value was −100%.

**Q.** What about the “Change of Lather Volume (rinse vs wash)” value ([4]; DI Water) of the same compound?
**A.** Its value is −23%.

**Q.** What about the “Lather Volume” value ([4]; pH 8.0 (rinse), 4 gpg) of the same compound?
**A.** Its value is 60 mL.

**Q.** And the “Lather Volume” value ([4]; pH 8.0 (rinse), 8 gpg)?
**A.** The value was 0 mL.

**Q.** And the “Lather Volume” value ([4]; pH 8.0 (rinse), 12 gpg)?
**A.** The value was 0 mL.

**Q.** And the “Lather Volume” value ([4]; pH 8.0 (rinse), 16 gpg)?
**A.** Its value is 0 mL.

**Q.** What about the “Lather Volume” value ([4]; pH 8.0 (rinse), DI Water) of the same compound?
**A.** The value was 170 mL.

**Q.** And the “Lather Volume” value ([4]; pH 10.0 (wash), 4 gpg)?
**A.** The value was 215 mL.

**Q.** And the “Lather Volume” value ([4]; pH 10.0 (wash), 8 gpg)?
**A.** The value was 175 mL.

**Q.** And the “Lather Volume” value ([4]; pH 10.0 (wash), 12 gpg)?
**A.** The value was 0 mL.

**Q.** And the “Lather Volume” value ([4]; pH 10.0 (wash), 16 gpg)?
**A.** Its value is 0 mL.

**Q.** What about the “Lather Volume” value ([4]; pH 10.0 (wash), DI Water) of the same compound?
**A.** Its value is 220 mL.

Reference: patent US8877696B2, “Cleaning compositions comprising pH-switchable amine surfactants” (The Proctor & Gamble Company, priority 2012, dated 2014)
